1 compound from US11986512B2, “Compositions and methods for cancer therapy” (Thetis Pharmaceuticals LLC, priority 2021, dated 2024) can be followed below.

One assay has as its system LLC cells. In words: Metastatic LLC resection model, perioperative (neo-adjuvant) treatment. The class given is in vivo, C57BL/6J male mice. Particulars: 300 ug/kg, SC, Q6D, first dose 2 hours prior to surgery. The method, then:
To investigate the efficacy of LTD dosing of bis RvE1 Mg-di-lysinate as neo-adjuvant therapy, a study was conducted in the metastatic LLC resection model with treatment initiated in the perioperative window. A total of fifteen (15) C57BL/6J male mice were injected subcutaneously with 1×10e6 living LLC cells. Once tumors reached approximately 1200-1500 mme3 in size, the mice were randomized (n=4-8 per group) to treatment with vehicle (SC, Q6D), bis RvE1 Mg-di-lysinate (300 ug/kg, SC, Q6D), or cisplatin (5 mg/kg, i.p, Q6D), followed by surgical resection of the tumors. The mice in the vehicle and cisplatin groups received an initial dose twenty-four (24) hours prior to surgery, and the mice treated with bis RvE1 Mg-di-lysinate received an initial dose two (2) hours prior to surgery. All mice were sacrificed on day 19 following the death of three mice in the vehicle control group on day 18.

In another assay the test system is Panc2 cells. Kind of assay: Panc2-H7 model with or without anti-CTLA4. The class given is in vivo, C57BL/6J male mice. The method, then:
To further corroborate the findings with weekly dosing of bis RvE1 Mg-di-lysinate and its efficacy in combination with immune checkpoint inhibitors (ICI), another study was conducted in the Panc2-H7 model with a different ICI. A total of twenty-four (24) C57BL/6J male mice were injected subcutaneously with 1×10e6 living Panc2 cells. Once tumors reached 200 mm^3 in size based on mean tumor volume per cohort, the mice were randomized (n=8 per group) to treatment with vehicle, bis RvE1 Mg-di-lysinate (300 ug/kg, SC, Q7D) and bis RvE1 Mg-di-lysinate+anti-CTLA-4 (4 mg/kg, i.p, first dose; 2 mg/kg i.p, Q3D following the first dose).

For a further assay, the system named is subcutaneous KPC tumors. In words: RNAseq cell enrichment analysis of subcutaneous KPC tumors. The format is in vivo, mice. Particulars: Q6D treatment, sacrificed on Day 26, compared to placebo. The method, then: RNAseq analysis was performed on tumor samples from mice with subcutaneous KPC tumors sacrificed on Day 26 following treatment (Q6D) with bis RvE1 Mg-di-lysinate (Compound 1) compared to placebo. […] Darker color indicates increased gene expression, for various immune cells and other cells, as listed across the top of the heatmap. […] Namely, these unexpected results may be due to durable effects on the tumor microenvironment including changes in immune cell phenotype and the T-cell compartment such as T-cell priming and increased tumor-infiltrating lymphocytes.

The subject of a further assay is Panc2-H7 cells. Kind of assay: Panc2-H7 model of pancreatic cancer, with and without anti-PD1. The class given is in vivo, C57BL/6J male mice. The method, then:
A representative compound of Formula IV, RvE1 magnesium dilysinate, was tested for efficacy in several mouse models of cancer, including the Panc2-H7 model of pancreatic cancer, the Lewis lung carcinoma (LLC) model, the MC38 model of colorectal cancer, and the B16F10 model of melanoma. These models are well established, highly tumorigenic syngeneic models in which murine cancer cell lines are injected subcutaneously (SC) into the dorsum of C57BL/6J mice. If left untreated, these tumors grow rapidly and lead to death or euthanasia, per protocol. As detailed below in Examples 1-9 and the accompanying figures, bis RvE1 Mg-di-lysinate (Compound 1) was unexpectedly effective as an anti-cancer agent in each of these model systems when administered in a less than daily (LTD) dosing regimen. […] Without being bound by any theory, the surprising efficacy of LTD dosing of resolvins in the cancer model systems described here may be the result of durable effects on the tumor microenvironment including changes in immune cell phenotype, vascularization, stromal phenotype, and antigen presentation, as well as durable effects on the T-cell compartment such as T-cell priming and increased tumor-infiltrating lymphocytes.
Over the last two decades, research on checkpoint inhibitors, including anti-PD(L)1 and anti-CTLA4, has focused on T-cells as a major therapeutic target. Waldman et al., Nat Rev Immunol. 2020; 20(11):651-668. In general, the response to treatment with immune checkpoint inhibitors requires the presence of CD4+ and CD8+ T cells in the tumor microenvironment. Li et al., Biochim Biophys Acta Rev Cancer. 2020; 1874(2):188439. […] Chiurchiu et al., Sci. Transl. Med. 2016; 8:353ra111; Mizraji et al., Front Immunol. 2018; 9:785; Oner et al., Front Immunol. 2021; 12:637983. In addition, resolvins can enhance the de novo generation and function of immunosuppressive T regulatory cells, which are associated with cancer progression and resistance to immune checkpoint inhibitors. Alvarez et al., Front Immunol. 2021; 12:664756; Togashi et al., Nat Rev Clin Oncol 2019; 16, 356-371. […]

In a further assay the test system is KPC cells. In words: Orthotopic KPC model of pancreatic cancer, survival. The format is in vivo, C57BL/6J male mice. The method, then:
To expand our understanding of less than daily (LTD) dosing of bis RvE1 Mg-di-lysinate as a cancer therapy that could be used in combination with chemotherapy, bis RvE1 Mg-di-lysinate (Compound 1) was investigated in the orthotopic KPC model of pancreatic cancer. A total of fifteen (15) C57BL/6J male mice were implanted orthotopically with 5×10e5 living KPC cells into the pancreas. The mice were randomized (n=7-8) to treatment with bis RvE1 Mg-di-lysinate (300 ug/kg, SC, Q6D) with or without gemcitabine (50 mg/kg, IP, Q3D, up to 6 doses) one day after tumor cell implantation.

As for `CC[C@@H](O)/C=C/C=C\C[C@@H](O)/C=C/C=C/C=C\[C@@H](O)CCCC(=O)O` [bis RvE1 Mg-di-lysinate], in the assay with LLC cells (compared to vehicle control and cisplatin, p<0.05), the “number of lung metastases” value is given as “significantly reduced the number of lung metastases”. Besides, the “number of mice with metastasis in the axillary or inguinal lymph nodes” value in the assay on LLC cells (compared to vehicle or cisplatin, p<0.01) is “significantly reduced the number of mice with metastasis in the axillary or inguinal lymph nodes”. Further, the “tumor volume over time” value in the assay with Panc2 cells (bis RvE1 Mg-di-lysinate 300 ug/kg SC Q7D + anti-CTLA-4 (4 mg/kg i.p first dose, 2 mg/kg i.p Q3D), p<0.001) is “significant inhibition related to both placebo and bis RvE1 Mg-di-lysinate alone”; in the assay with Panc2 cells (monotherapy, 300 ug/kg, SC, Q7D), “significant inhibition as monotherapy compared to placebo”. In the assay on subcutaneous KPC tumors, the “immune cell marker gene expression in tumors (RNAseq heatmap)” value is “increase in markers of monocytes and DC cell subset (cDCs, pDCs, and iDCs) and markers of NK, CD8+ T cells, Th1 cells, and memory T cells (CD8+ and CD4+)”. Besides, the tumor growth entry is reported as “significantly inhibited tumor growth relative to control” in the assay with Panc2-H7 cells (double combination: bis RvE1 Mg-di-lysinate 30 ug/kg SC plus anti-PD1 8 mg/kg IP Q3D, p<0.001 vs placebo and monotherapy groups); “significantly inhibited tumor growth relative to control” with Panc2-H7 cells (triple combination of bis RvE1 Mg-di-lysinate, anti-PD1 and gemcitabine). Besides, the “anti-cancer effect (tumor volume, Day 15 vs Day 0)” value in the assay with Panc2-H7 cells (monotherapy, 30 ug/kg, subcutaneous injection) is listed as “did not have a significant anti-cancer effect”. For the same compound, in the assay with KPC cells (bis RvE1 Mg-di-lysinate 300 ug/kg SC Q6D in combination with gemcitabine 50 mg/kg IP Q3D up to 6 doses), the mean survival worked out at 129 days. Further, the “mice alive as of the last observation (day 250)” value with KPC cells (bis RvE1 Mg-di-lysinate + gemcitabine combination group, three of the seven mice) turned out to be 43%. In addition, the “increase in survival, combination versus gemcitabine monotherapy” value with KPC cells (bis RvE1 Mg-di-lysinate + gemcitabine, p<0.05) is given as “four-fold increase in survival”.
